Assay results taken from patent US20250263457A1, “Pharmaceutical Composition for Preventing and Treating Liver Disease Comprising Novel Peptide” (Pusan National University Industry-University Cooperation …, priority 2024, published 2025).

Assays:
human pHSCs [1] = experiment: Western blot of HSC activation/inactivation markers in human pHSCs; type: cell-based; conditions: 40 ng/ml, vs control (FIG. 2C)
Procedure: To confirm the expression of cell activation markers, human pHSCs (5× 10^5 cells/ml) were treated with peptide YJ at a concentration of 20 or 40 ng/ml, and then proteins were extracted and subjected to Western blotting. At this time, as primary antibodies, anti-α-SMA antibody (Sigma-Aldrich, A5228), anti-GAPDH antibody (Bio-rad, MCA4739), anti-GFAP antibody (Dako, z0334), and anti-TFG-β antibody (Cell Signaling Technology, 3711) were used. In addition, as secondary antibodies, Goat anti-mouse IgG F(ab′) 2 antibody (HRP conjugate) (Enzo, ADI-SAB-100-J) and Goat anti-rabbit IgG antibody (HRP conjugate) (Enzo, ADI-SAB-300-J) were used.

[2] = test system: alcohol-related liver disease mouse model; experiment: Inflammatory response (CD68, F4/80 immunohistochemistry) and alcohol metabolism/apoptosis markers (Western blot) in liver tissue of mouse model; type: in vivo, C57BL/6 male mice; conditions: 3.3 μg/kg i.p. every other day for three weeks, vs vehicle
Description: (§1) To prepare alcohol-related liver disease mice, 8-week-old C57BL/6 male mice were fed with a Lieber DeCarli liquid diet (Dyets, 710260) containing 5% EtOH for 9 weeks, and then injected intraperitoneally with a vehicle (PBS) every other day along with feeding liquid diet for additional 3 weeks. As a control group for the EtOH diet, mice fed with a pair Lieber DeCarli liquid diet (Dyets, 710027) having the same total calories as the EtOH diet were used (FIG. 4A).
Specifically, the liver tissue extracted from the mouse was fixed by treating 10% neutral buffered formalin, and then embedded using paraffin. The liver tissue paraffin block was cut into 4 μm-thick sections to produce tissue section slides. After deparaffinization and hydration processes of the tissue section slides, 3% hydrogen peroxide was treated to block endogenous peroxidase. Then, the section slides were treated with 10 mM sodium citrate buffer (pH 6.0) and heated for 10 minutes or treated with 0.2% pepsin to induce antigen retrieval. To inhibit non-specific binding of antibodies, blocking (Dako, X9090) was performed, and then the primary antibodies were treated and reacted overnight at 4° C. At this time, the primary antibodies used were anti-CD68 antibody (Abcam, ab125212) and anti-F4/80 antibody (Abcam, ab6640). The section slides were washed with TBST and then treated with secondary antibodies and reacted. The secondary antibodies used were EnVision+ Single Reagents (HRP, Rabbit) (Dako, K4003) and Goat anti-rat IgG-heavy and light chain antibodies (HRP conjugated) (BETHYL, A110-105P). Thereafter, the section slides were washed with TBST and treated with 3,3′-diaminobenzidine (DAB) (Dako, K3466) to develop the color. After the color development, the tissues of the section slides were dehydrated, mounted, fixed, and then observed under a microscope.
(§2) The alcohol-related liver disease mouse model established by the method of Example 5.1 was administered vehicle (PBS) or peptide YJ (3.3 μg/kg) intraperitoneally every other day for three weeks, and then blood was collected and liver tissue was extracted to confirm the liver disease treatment effect of peptide YJ.
The degree of inflammatory response in the liver tissue extracted from the experimental mice of Example 5.3 was confirmed in the same manner as in Example 5.3.2.
In addition, the expression of alcohol metabolism markers and apoptosis marker proteins was confirmed through Western blot. Western blot was performed in the same manner as in Example 2. At this time, the primary antibodies used were anti-CYP2E1 antibody ([…], ab125212), anti-4HNE antibody (Abcam, ab46545), anti-cleaved caspase-3 antibody (Cell Signaling Technology, 9661s), anti-caspase-3 antibody (Cell Signaling Technology, 9662s), and anti-GADPH antibody.

human pHSCs [3] = experiment: RT-qPCR and Western blot of fibrosis/activation markers in human pHSCs; type: cell-based; conditions: 40 ng/ml, 24 and 48 hours, vs control (FIGS. 3C, 3D)
Procedure: In addition, after pHSCs were treated with peptide YJ for 24 and 48 hours by the same method as above, respectively, RNA and protein were extracted (whole lysate) and the expression of pHSCs activation markers was confirmed through RT-qPCR (FIG. 3C) and Western blot (FIG. 3D). Western blot was performed using the same method as in Example 2, and RNA extraction and RT-qPCR were performed as follows. At this time, human pHSCs treated with PBS were used as a control group.
First, total RNA was extracted from each cell using a Trizol solution (Invitrogen, 15596-026), and then the concentration and purity of RNA were confirmed using a nanodrop. Thereafter, complementary DNA (cDNA) was synthesized using the RNA as a template using the SuperScript First-strand Synthesis System (Invitrogen, 18064014). The cDNA synthesized by the method was used as sample DNA in quantitative real-time PCR (qPCR).
The quantitative real-time PCR (qPCR) was performed using Power SYBR Green Master Mix (Applied Biosystem), and the results were analyzed by a […] method. The qPCR results were analyzed for significance using Mean±SEM values of three independent experiments through one-way ANOVA followed by post hoc Tukey's test.

CD44 = CD44 and CD44ICD expression in liver tissue of mouse model (IHC, Western blot); type: in vivo, C57BL/6 male mice; conditions: 3.3 μg/kg i.p. every other day for three weeks
Description: as §1, §2
The expression of CD44 and CD44ICD in liver tissues extracted from the experimental mice of Example 5.3, or nuclear proteins or whole proteins (whole lysate) of liver tissues, was confirmed through immunohistochemical staining and Western blot. The immunohistochemical staining was performed using anti-CD44 antibody and anti-CD44ICD antibody by the method of Example 5.2.3, and Western blot was performed by the method of Examples 2 and 4.

[4] = EtOH diet group, Western blot (FIG. 6F)
[5] = EtOH diet group, vs vehicle, Western blot (FIG. 8B)

## peptide YJ: TSG-6 fragment: core domain RSGKYKLTYAEAKA plus C-terminal extension VCEFEGGHLATYKQLEAARKIGFHVCAAGWMAK (SEQ ID NO: 9); TSG-6 mimetic (RSGKYKLTYAEAKAVCEFEGGHLATYKQLEAARKIGFHVCAAGWMAK; peptide 4)
Human pHSCs [1]
  expression of GFAP (inactivation marker): increased
  expression of activation markers of pHSCs: decreased
[2]; EtOH diet group, IHC (FIG. 6E)
  expression of CD68 in liver tissue: significantly reduced
  expression of F4/80 in liver tissue: significantly reduced
[2]; [4]
  expression of 4HNE in liver: did not show a significant difference
  expression of CYP2E1 in liver: did not show a significant difference
[2]; Western blot (FIG. 6F)
  expression of cleaved caspase-3 (apoptosis marker) in liver: decreased
Human pHSCs [3]; RT-qPCR and Western blot
  expression of COL1α1: decreased
  expression of CTGF: decreased
  expression of TGF-β: decreased
  expression of TIMP1: decreased
  expression of α-SMA: decreased
Human pHSCs [3]
  expression of GFAP (inactivation marker of pHSCs): increased
CD44; [5]
  expression of CD44ICD in whole lysate of liver tissue: reduced
  expression of CD44 in whole lysate of liver tissue: reduced
CD44; EtOH diet group, vs vehicle, Western blot (FIG. 8C)
  expression of CD44ICD in nuclear protein of liver tissue: significantly reduced
CD44; immunohistochemical staining (FIG. 8A)
  expression of CD44 in liver tissue: decreased
